{
  "source": "patent US10314912B2",
  "about": "“Polymer coating compositions and coated products” (Ariste Medical, LLC, priority 2012, dated 2019)",
  "key": {"[1]": {"experiment": "HPLC of methanol extracts: drug loading of coated ePTFE hernia mesh", "type": "physicochemical", "conditions": "soak in 10 mg/ml of each drug in methanol, ~17 hours, 4° C", "experimental": "Specimens were then removed from drug solution and dried in air. Following air-drying, specimens were rinsed in either methanol) or water. For the methanol rinse, specimens were suspended using forceps and agitated by hand in two consecutive 15 ml methanol rinses for 15 seconds, then allowed to air dry. For the water rinse, specimens were transferred to 10 ml of deionized water in conical tubes and aggressively vortexed for 2 minutes. Specimens were then allowed to air dry. The above steps resulting in the following four conditions: (a) 1 coat—water rinse; (b) 3 coats—water rinse; (c) 1 coat—methanol rinse; and (d) 3 coat—methanol rinse.\nDried specimens were individually extracted in 1 ml of methanol at 4° C. for 64 or 76 hours. 20 μl of each extract were run on HPLC to assess the effects of rinse method and number of coating cycles on drug loading of the coatings. HPLC conditions were as follows: 30° C.; 250×3 mm C-18 with 5 μm packing; 280 nm absorbance; Channel A—35 mM Na2HPO4 with 1 vol % triethylamine, pH=8.1 w/phosphoric acid; Channel B—acetonitrile/Running parameters at 1 ml/min: (i) 0-10 minutes—gradient 0-50 vol % Channel B; (ii) 10-20 minutes—50 vol % Channel B; (iii) 20-25 minutes—20-0 vol % Channel B."}, "[2]": {"experiment": "HPLC test of drug stability to curing light in coating composition components", "experimental": "HPLC tests were performed to assess the effects of various components of the coating composition on drug stability. HPLC analysis was run on the starting 50 μg/ml drug solution as a control. HPLC parameters were as follows: Channel A=>35 mM sodium phosphate pH=7.5 w/1 v % TEA; Channel B=>acetonitrile; 0-50% B 0-10 min, 50% B 10-13 min, 50-0% B 13-15 min, 0% B 6 min post time; 20 μl injections; 1 ml/min; 30° C.; 335 nm. […] Samples tested included: (1) Solvent+Drug; (2) Solvent+Photoinitiator (PI)+Drug; and (3) Solvent+Monomer Component+PI+Drug. […] The Solvent+PI+Drug (Sample 2) samples were prepared as follows: 1% wt/wt IrgaCure® 2959 was added to the 50 μg/ml drug solution solutions and cured according to the parameters described for Formulation 5 in Table 2. The Solvent+Monomer Component+PI+Drug+Drug (Sample 3) were prepared as follows: ˜3 ml Formulation 5 (Table 2) inspired solution with exception of using the 50 μg/ml drug solution and 20 wt % comonomer as the solvent was created and exposed to cure parameters detailed for Formulation 5 (Table 2) followed by HPLC analysis upon blending 1:1 with methanol, to terminate polymerization reaction/free-radicals. Note: polymerization of small volumes of Formulation 5 results in evaporation of the acetone solvent, thereby concentrating the monomers. […] FIG. 5A depicts HPLC chromatograms from the Sample 1 (dark gray line) and Sample 2 (light gray line) without exposure to light. […] FIG. 5B depicts chromatograms from the Sample 1 samples without light exposure and with light exposure. […] FIG. 5C depicts chromatograms from Sample 2 without light exposure and with light exposure. […] FIG. 5D depicts chromatograms from Sample 1 and Sample 3 after exposure to light."}},
  "data": [
    {"compound": "CO[C@H]1/C=C/O[C@@]2(C)Oc3c(C)c(O)c4c(O)c(c(/C=N/N5CCN(C)CC5)c(O)c4c3C2=O)NC(=O)/C(C)=C\\C=C\\[C@H](C)[C@H](O)[C@@H](C)[C@@H](O)[C@@H](C)[C@H](OC(C)=O)[C@@H]1C", "note": "[rifampin]", "values": [
      {"measurement": "absorption of drug into polymerized coating", "setting": "[1]", "result": "absorbed into the methacrylate coating matrix"},
      {"measurement": "drug stability (HPLC peaks)", "setting": "[2]; 50 μg/ml in acetone, with or without photoinitiator, without exposure to light, FIG. 5A", "result": "stable"},
      {"measurement": "drug stability (HPLC peaks)", "setting": "[2]; Sample 1, solvent alone, with light exposure, FIG. 5B", "result": "degraded by light exposure"},
      {"measurement": "drug stability (HPLC peaks)", "setting": "[2]; Sample 2, solvent + 1% wt/wt IrgaCure 2959, with light exposure, FIG. 5C", "result": "did not protect the drugs from light-induced degradation"}
    ]}
  ]
}
